What was measured:
[1] = test system: Rat-1/CD40 CI.8 cell line; assay: MTT colorimetric cell growth assay (Mossman), CD40-transfected Rat-1 fibroblasts; assay type: cell-based
Source text: A human ovarian carcinoma cell line A2780 and its cis-platin-resistant derivative 2780CP ( see Masuda et al., Cancer Res., 50, 1863-1866, 1990), an EJ bladder carcinoma cell line (Accession No.85061108, European Collection of Animal Cell Cultures, Porton Down, UK ) and Rat-1 fibroblasts (Lania et al., Virology, 101, 217-232, 1980) were continuously maintained in RPMI 1640 medium (GIBCOBRL, Life technologies Ltd, Paisley, Scotland) supplemented with 10% FCS (foetal calf serum - ICN Flow, Thane, Oxfordshire, England), 2mM glutamine, and the antibiotics, penicillin (1000 U/ml) and streptomycin (1mg/ml) (Sigma Co. Ltd, Poole, Dorset, England) at 37°C in a 5% CO2 atmosphere. […]
(§1) Inhibition of cell proliferation was evaluated using the colorimetric assay of Mossman (see Mossman, J. Immunol. Meths., 65, 55-63, 1983). […] Various concentrations of G28.5 mAb were then added and their effect on cell growth was evaluated after an appropriate period of time (48, 72 or 96 hrs) by the addition of 20 µl of 5 mg/ml MTT (3-([…])-2,5-diphenyl tetrazolium bromide) obtained from Sigma, in PBS. The cells were further incubated for 5 hrs at 37°C, formazan crystals thus formed were dissolved in DMSO and the optical density (O.D.) was recorded at 550nm on a Becton Dickinson Multiscan. […] After 48 hours, cell growth was assessed using the MTT assay as described above. […]

[2] = test system: ovarian carcinoma cell line A2780; assay: MTT colorimetric cell growth assay (Mossman), A2780; assay type: cell-based, human; settings: 48 hour MTT assay
Source text: A human ovarian carcinoma cell line A2780 and its cis-platin-resistant derivative 2780CP ( see Masuda et al., Cancer Res., 50, 1863-1866, 1990), an EJ bladder carcinoma cell line (Accession No.85061108, European Collection of Animal Cell Cultures, Porton Down, UK ) and Rat-1 fibroblasts (Lania et al., Virology, 101, 217-232, 1980) were continuously maintained in RPMI 1640 medium (GIBCOBRL, Life technologies Ltd, Paisley, Scotland) supplemented with 10% FCS (foetal calf serum - ICN Flow, Thane, Oxfordshire, England), 2mM glutamine, and the antibiotics, penicillin (1000 U/ml) and streptomycin (1mg/ml) (Sigma Co. Ltd, Poole, Dorset, England) at 37°C in a 5% CO2 atmosphere.
as §1

Question: With N.N.[Cl][Pt][Cl] [cis-platin] as the compound, how does the IC50 ([1]; cis-platin with 1 µg/ml G28.5 mAb, spread +/- 0.3) read?
Answer: Its IC50 is 4.2 µM.

Question: What about the IC50 ([1]; cis-platin without G28.5 mAb, spread +/- 0.9) of the same compound?
Answer: Its IC50 is 6 µM.

Question: And the cell killing effect ([2]; 5 µM cis-platin alone)?
Answer: Its cell killing effect is 46%.

Question: What about the cell killing effect ([2]; 5 µM cis-platin with 10 µg/ml G28.5 mAb) of the same compound?
Answer: The cell killing effect was 61%.

Source: EP0806963B1, “CARCINOMA TREATMENT” (THE UNIVERSITY OF BIRMINGHAM, priority 1994, dated 1996)
